Measured values as given in patent publication US20250114464A1, “PRE-MRNA SLICE MODULATING PEPTIDE-CONJUGATED ANTISENSE THERAPEUTICS FOR THE TREATMENT OF DISEASES” (The Governors of the University of Alberta, priority 2022, published 2025).

Experiments:
[1] = test system: dystrophin; details: patients, after 180 weeks of treatment with 30 or 50 mg/kg/week; cited from earlier work
[2] = test system: Taiwanese SMA mouse model (Smn^−/− SMN2^Tg/−); experiment: H and E muscle pathology (myofiber size, centrally nucleated fibers) in SMA mice; type: in vivo; details: 40 mg/kg at PD0
Description: Atrophic musculature is a classical characteristic feature of SMA with diminished skeletal muscle fiber size. To determine the treatment effects on muscle pathology, we assessed the physiology and architecture of the myofibers of two affected muscle groups− the quadriceps and intercostal muscles, as well as the sparingly affected diaphragm at PD7 and PD30 [79,80]. We quantified the cross-sectional area (CSA), the minimal feret's diameter and centrally nucleated fibers for at least 500 myofibers per muscle for each treatment using hematoxylin & eosin (H & E) staining at PD7 and PD30 (FIG. 12a, b, FIGS. 19 and 20).
7 μm cryosections of the quadricep muscle, diaphragm and intercostal muscle were stained with Meyer's H&E reagents (Electron Microscopy Reagents). For the centrally nucleated fibers and myofiber size, 500-800 were randomly selected per muscle per treatment. The cross-sectional area and minimal Feter's diameter were quantified using Image J. All H and E analyses were performed in a blinded fashion.

[3] = test system: Taiwanese SMA mouse model (Smn^−/− SMN2^Tg/−); experiment: Neuromuscular junction (NMJ) staining at PD30; type: in vivo, mice; details: 40 mg/kg at PD0
Experimental: NMJ staining was carried out as previously described. Briefly, the quadricep and the intercostal muscle were fixed in 4% paraformaldehyde (PFA) for 2 hours. The muscles were washed quicky with PBS and blocked with 5% goat serum and 2% Triton-X in PBS for 1 hour at RT. This was followed by an overnight incubation at 4 with the primary mouse monoclonal antibodies anti-neurofilament 2H3 (1:100) and anti-synaptophysin (1:500) (DSHB, Iowa). Subsequently, the muscles were incubated in the dark with Alexafluor 488-goat anti-mouse IgG1 (1:1000) (Life Technologies) and Alexafluor 594-bungarotoxin (1:5000) (ThermoFisher Scientific). At least 300 NMJs were z-stacked and visualized for the analysis of denervation and cross-sectional area using a confocal microscope (Zeiss LSM 710) and Zeiss Zen software. The synaptic area was quantified using image J. All analyses were performed in a blinded fashion.

[4] = test system: Taiwanese SMA mouse model (Smn^−/− SMN2^Tg/−); experiment: Righting reflex test; type: in vivo; details: 40 mg/kg at PD0; mice that survived beyond PD12
Experimental: This spontaneous ability of the mice to right themselves up was tested from P2 until the weaning stage P20. The neonates were placed on their backs and the time taken to reposition and place all four paws on the ground was noted. The recording time was a maximum of 60 s. Each neonate underwent three trials, with a resting period of at least 10 minutes between trials. The data is expressed as the mean time to complete the righting reflex test ±SEM.

[5] = test system: Taiwanese SMA mouse model (Smn^−/− SMN2^Tg/−); experiment: Whole-body plethysmographic recordings at PD7; type: in vivo, mice; details: 40 mg/kg at PD0
Experimental: Measurements were performed in whole body, cylindrical transparent plexiglass plethysmographs that had one inflow and two outflow ports for the continuous delivery of fresh room air and removal of expired carbon dioxide. The plethysmograph of volumes were 10 ml (inner diameter: 1.9 cm, length: 3.5 cm for P7 mice with body weight less than 2.5 g), 30 ml (inner diameter: 2.6 cm, length: 5.6 cm for P7 mice with body weight more than 2.5 g) and 80 ml (inner diameter: 3.8 cm, length: 7 cm for P30) for measures of respiratory parameters with a flow rate of 15, 45, 120 ml/min, respectively. The gas was mixed with gas mixer (GSM-3, CWE InC, USA), delivered from compressed pure oxygen and pure nitrogen cannisters, being monitored using 0-200 ml/min gas regulators (Porter Instrument Company, USA).
Hypoxic challenge (11% of oxygen for 5 min) was performed with continuous monitoring of plethysmographic recordings without physical handling of the animal by switching inflow gas from normoxia (21% of oxygen, balanced by nitrogen) to hypoxia (11% of oxygen, balanced by nitrogen). […] For P30, the plethysmograph was recorded at room temperature of around 22° C. Pressure changes were detected with a pressure transducer (model DP 103; Validyne, USA), signal conditioner (CD-15; Validyne), recorded with data acquisition software (Axoscope) via analog-digital board (Digidata 1322A). […]

[6] = test system: Taiwanese SMA mouse model (Smn^−/− SMN2^Tg/−); experiment: Survival of severe SMA mice after subcutaneous injection at PD0; type: in vivo
Experimental: To examine whether DG9 peptide can increase the efficacy of PMO, DGS peptide was conjugated to an 18-mer PMO with a sequence identical to nusinersen. The DG9-conjugated PMO and unconjugated-PMO and 2′-O-methoxyethyl-RNA (MOE) were injected into SMA model mice.
Mice were subcutanteously injected with the AOs or saline (NT) administered at postnatal day 0 (PD0) at two different doses-40 mg/kg or 80 mg/kg. The survival was recorded until a humane endpoint was reached. For the 40 mg/kg doses, the median survival was 12 d (unconjugated-PMO), 15.5 d (MOE), and increased to 58 d for DG9-PMO treatment (FIG. 9a). The median survival incremented to 57 d (unconjugated-PMO), 121 d (DG9-PMO) and 64 d (MOE) for the higher dose of 80 mg/kg (FIG. 9a).
All animal experiments were conducted in University of Alberta and approved by the Animal Care and Use Committee, University of Alberta Research Ethics Office. SMA transgenic mice (JAX stock #005058 FVB.Cg-Tg(SMN2)2HungSmn1^tm1Hung/J (Smn^−/−; SMN2^Tg/Tg), also known as the Taiwanese mice) were purchased from Jackson Laboratory (Bar Harbor, ME, USA). Heterozygous mice for Smn1 (Smn1^+/−; SMN2^−/−) were crossed with mice homozygous for Smn1 Smn^−/−; SMN2^Tg/Tg to obtain the SMA mice (Smn^−/−; SMN2^Tg/−) or the heterozygous healthy control (Smn1^+/−; SMN2^Tg/−). The SMA mice display a severe overt phenotype similar to SMA type I patients. […]

[7] = test system: dystrophin; details: in vitro; cited from earlier work

Substance: eteplirsen
- dystrophin of normal levels [1]: 0.93%

Substance: unconjugated-PMO: Example 2: 18-mer PMO targeting ISS-N1 intron 7 (5′-TCACTTTCATAATGCTGG-3′), sequence identical to nusinersen (all phosphorodiamidate morpholino (PMO); unconjugated)
- quadriceps myofiber size ([2]; PD7): significantly smaller than those of DG9-PMO
- myofiber size and percent of central nuclei ([2]; PD30, all three tissue types): significantly smaller myofibers and a higher percent of central nuclei compared to DG9-PMO
- NMJ architecture [3]: smaller endplates and collapsed vesicles
- full innervation of NMJs ([3]; quadriceps and intercostal muscles): 40-50%
- time to right themselves on their paws [4]: still took longer than DG9-PMO mice
- respiratory parameters (fR, VE, VT) ([5]; PD7, hypoxic environment (11% O2), relative to normoxia): slow, weak, and irregular breathing when compared to the Hets
- respiratory phenotype ([5]; PD7, normoxic conditions (21% O2)): Half of the unconjugated-PMO mice (n=14) exhibited parameters as seen in NT mice
- median survival ([6]; 40 mg/kg subcutaneous at PD0): 12 days
- median survival ([6]; 80 mg/kg subcutaneous at PD0): 57 days

Substance: Ex51_Ac0: exon 51-skipping PMO, GTGTCACCAGAGTAACAGTCTGAGTAGGAG (all phosphorodiamidate morpholino (PMO); DG9 cell-penetrating peptide conjugated at 3' end in DG9-PMO)
- effectiveness in restoring dystrophin production relative to eteplirsen [7]: up to 7 times
